These results are taken from US8530652B2, “Pyrrolopyrazoles, potent kinase inhibitors” (Agouron Pharmaceuticals, Inc., priority 2005, dated 2013).

Assay [1] addresses PAK4 kinase domain (PAK4 KD) (Homo sapiens (Human), UniProt O96013). Kind of assay: PAK4 kinase domain enzymatic assay (coupled PK/LDH, NADH absorbance at 340 nm). It is filed as biochemical. To be noted: PAK4 kinase domain, 25 nM PAK4 KD, 0.04 mM ATP, pH 7.5. An excerpt: Cloning, expression, and purification of recombinant PAK4 Kinase domain (PAK4 KD): The cDNA coding for PAK4 was amplified from the EST clone (#12) (purchased from Research Genetics) by using PCR. […] The PCR amplified product was cloned into Topo vector (Invitrogen Inc.), and verified by DNA sequencing. PAK4 KD was then subcloned into expression plasmid pET28a(+), pET24a(+), or pGST4.5. The recombinant plasmids containing PAK4 KD was transformed into BL21(DE3) cells for recombinant protein expression. […] The cells were then harvested and lyzed for protein purification. Ni-NTA column (pET28a(+), pET24a(+)) and glutathione column (pGST4.5) were used for the purification.
PAK4 kinase domain enzymatic assay conditions: the enzymatic activity of PAK4 KD was measured by its ability to catalyze the transfer of a phosphate residue from a nucleoside triphosphate to an amino acid side chain of a commercially available peptide (amino acid sequence […]). The conversion of ATP to ADP accompanies the catalytic reaction. The PAK4 KD catalyzed production of ADP from ATP was coupled to the oxidation of NADH through the activities of pyruvate kinase (PK) and lactate dehydrogenase (LDH). The conversion of NADH to NAD^+ is monitored by the decrease in absorbance at 340 nm (e340=6.22 cm^−1mM^−1) using a Molecular Devices SPECTRAMAX 190 in conjunction with the Biomec FX. Typical reaction solutions contain 2 mM phosphoenolpyruvate, 0.35 mM NADH, 10 mM MgCl2, 1 mM DTT, 0.4 mM peptide ([…]) 0.04 mM ATP, 1 units/mL PK, 1 units/mL LDH, 0.01% Tween 20 in 50 mM HEPES, pH 7.5. […] The PAK KD Ki of each compound of the invention (the inhibitor) was calculated based on multiple of Percent Inhibition numbers of the inhibitor at different inhibitor concentrations. The peptide (amino sequence […]) was purchased from American Peptide Company. NADH, MgCl2, HEPES, DTT, ATP and PK/LDH were purchased from Sigma. Tween 20 was purchased from Calbiochem.

Assay [2] deals with PAK4 kinase activity in whole cells (TR-293-KDG, modified HEK 293 overexpressing GEF-H1b and PAK4 KD) (Homo sapiens (Human), UniProt O96013). Kind of assay: PAK4 cellular assay: sandwich ELISA of PAK4-dependent phosphorylation of GEF-H1b in TR-293-KDG cells. The assay is classed as cell-based. The following applies: doxycycline-induced, 3-hour exposure, phospho-GEF-H1b ELISA. From the text:
A sandwich ELISA method was used to measure the PAK4 kinase activity in whole cells. The level of PAK4-dependent phosphorylation of GEF-H1b can be determined by monitoring the binding of a phosphospecific antibody to GEF-H1b. A modified HEK 293 cell line is used in the bioassay and it has been engineered to overexpress both GEF-H1b and the kinase domain (KD) of PAK4. The KD of PAK4 is inducible in this cell line by tetracycline (Trex system, Invitrogen). The name of this cell line has been designated TR-293-KDG. To establish a phosphorylation event on GEF-H1, cells are induced with doxycycline to express the PAK4 KD. […] Candidate substance effect is measured as the ability to block this phosphorylation event.
ELISA plate was prepared by pre-coating the plates with a capture antibody (α-HA-tag mouse monoclonal antibody), blocked with BSA, and washed in 0.1% tween 20 in tris-buffered saline (TBST). Tissue culture plates (precoated with poly-D-lysine) were seeded with TR-293-KDG cells. The TR-293-KDG Cells were induced to express the PAK4 KD with doxycycline overnight and subsequently & concomitantly treated with candidate substances or diluent for an additional 3-hour, continuous exposure. Cells were then lysed with a modified RIPA buffer supplemented with protease inhibitors. The fresh whole cell lysates were then added to the ELISA plate for 2-hours. Between all subsequent steps plates were washed 4 times with TBST. Detection antibody (recognizing the phospho-specific eptitope on GEF-H1b) was added for 1 hour, followed by addition of an enzyme linked goat α-rabbit secondary antibody for 45 minutes. […] EC50 values were calculated by sigmoid curve fitting using a four-parameter analysis.
A general note: ELISA stands for enzyme-linked immunosorbent assay.

The structures appear in SMILES notation.

Chain of PAK4 kinase domain (PAK4 KD) (O96013 321-572): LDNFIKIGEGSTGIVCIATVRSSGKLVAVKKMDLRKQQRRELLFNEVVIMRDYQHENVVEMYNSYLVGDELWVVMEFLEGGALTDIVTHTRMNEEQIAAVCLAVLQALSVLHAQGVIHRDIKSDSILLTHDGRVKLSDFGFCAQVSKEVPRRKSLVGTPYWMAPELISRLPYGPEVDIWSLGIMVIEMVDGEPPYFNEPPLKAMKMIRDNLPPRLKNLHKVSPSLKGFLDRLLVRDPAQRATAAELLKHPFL
Chain of PAK4 kinase activity in whole cells (TR-293-KDG, modified HEK 293 overexpressing GEF-H1b and PAK4 KD) (O96013 321-572): as above

In turn, `CN(C)C[C@@H](OC(=O)N1Cc2c(Nc3ncncc3F)n[nH]c2C1(C)C)c1ccccc1` [Example 80, (1S)-2-(dimethylamino)-1-phenylethyl 3-[(5-fluoropyrimidin-4-yl)amino]-6,6-dimethyl-4,6-dihydropyrrolo[3,4-c]pyrazole-5(1H)-carboxylate] showed a Ki in assay [1] of 120 nM. Moreover, the EC50 in assay [2] was 20 nM.

`CN(C)C[C@@H](NC(=O)N1Cc2c(Nc3ccnc(C#N)n3)n[nH]c2C1(C)C)c1ccccc1` [Example 60, 3-[(2-cyanopyrimidin-4-yl)amino]-N-[(1S)-2-(dimethylamino)-1-phenylethyl]-6,6-dimethyl-4,6-dihydropyrrolo[3,4-c]pyrazole-5(1H)-carboxamide]: the affinity in assay [1], expressed as Ki, was 40 nM. Further, the EC50 in assay [2] is below 3.9 nM.

Turning to `Cc1nc(Nc2n[nH]c3c2CN(C(=O)N[C@@H]2C[C@H]2c2ccccc2)C3(C)C)cc(N(C)C)n1` (relative stereo) [Example 38, 3-{[6-(dimethylamino)-2-methylpyrimidin-4-yl]amino}-6,6-dimethyl-N-[trans-2-phenylcyclopropyl]-4,6-dihydropyrrolo[3,4-c]pyrazole-5(1H)-carboxamide], the affinity in assay [1] corresponds to a Ki of 96 nM. In addition, the midpoint of the response in assay [2], the EC50, lay at 1470 nM.

In turn, `Cc1ncc(F)c(Nc2n[nH]c3c2CN(C(=O)N[C@@H]2C[C@H]2c2ccccc2)C3(C)C)n1` (relative stereo) [Example 44, 3-[(5-fluoro-2-methylpyrimidin-4-yl)amino]-6,6-dimethyl-N-[trans-2-phenylcyclopropyl]-4,6-dihydropyrrolo[3,4-c]pyrazole-5(1H)-carboxamide] gave an inhibitory constant (Ki) in assay [1] of 230 nM. In assay [2], this compound showed a concentration giving a half-maximal response (EC50) above 4000 nM.

Take `CN1CCN(C(=O)N2Cc3c(Nc4nc(Cl)nc5ccsc45)n[nH]c3C2(C)C)[C@@H](Cc2ccccc2)C1` [Example 3, N-(5-{[(2S)-2-benzyl-4-methylpiperazin-1-yl]carbonyl}-6,6-dimethyl-1,4,5,6 tetrahydropyrrolo[3,4-c]pyrazol-3-yl)-2-chlorothieno[3,2-d]pyrimidin-4-amine]: in assay [1], the affinity corresponds to a Ki of 11 nM. This compound also gave an EC50 in assay [2] of 16 nM.

Take `Cc1nc(Nc2n[nH]c3c2CN(C(=O)O[C@H](CN(C)C)c2ccccc2)C3(C)C)c2ccsc2n1` [Example 69, (1S)-2-(dimethylamino)-1-phenylethyl 6,6-dimethyl-3-[(2-methylthieno[2,3-d]pyrimidin-4-yl)amino]-4,6-dihydropyrrolo[3,4-c]pyrazole-5(1H)-carboxylate]: the affinity in assay [1] corresponds to a Ki of 1.9 nM. Also, the EC50 in assay [2] stood at 3 nM.

The compound `Cc1cc2c(Nc3n[nH]c4c3CN(C(=O)N[C@@H]3C[C@H]3c3ccccc3)C4(C)C)ncnc2s1` (relative stereo) [Example 35, 6,6-dimethyl-3-[(6-methylthieno[2,3-d]pyrimidin-4-yl)amino]-N-[trans-2-phenylcyclopropyl]-4,6-dihydropyrrolo[3,4-c]pyrazole-5(1H)-carboxamide] had a Ki in assay [1] of 260 nM. Also, in assay [2], the 50% effective concentration (EC50) came out at 262 nM.

On to `Cc1cc2c(Nc3n[nH]c4c3CN(C(=O)N[C@H](CN(C)C)c3ccccc3)C4(C)C)ncnc2s1` [Example 62, N-[(1S)-2-(dimethylamino)-1-phenylethyl]-6,6-dimethyl-3-[(6-methylthieno[2,3-d]pyrimidin-4-yl)amino]-4,6-dihydropyrrolo[3,4-c]pyrazole-5(1H)-carboxamide], for which, in assay [1], the Ki is 15 nM. Also, the concentration for a half-maximal effect (EC50) in assay [2] was found to be 15 nM.

`CN(C)C[C@@H](NC(=O)N1Cc2c(Nc3nc(C#N)nc4ccccc34)n[nH]c2C1(C)C)c1ccccc1` [Example 64, 3-[(2-cyanoquinazolin-4-yl)amino]-N-[(1S)-2-(dimethylamino)-1-phenylethyl]-6,6-dimethyl-4,6-dihydropyrrolo[3,4-c]pyrazole-5(1H)-carboxamide] yielded a Ki in assay [1] of 3 nM. Moreover, the 50% effective concentration (EC50) in assay [2] is below 3.9 nM.

For `CC1(C)c2[nH]nc(Nc3nc(C#N)nc4ccccc34)c2CN1C(=O)N[C@@H]1C[C@H]1c1ccccc1` (relative stereo) [Example 40, 3-[(2-cyanoquinazolin-4-yl)amino]-6,6-dimethyl-N-[trans-2-phenylcyclopropyl]-4,6-dihydropyrrolo[3,4-c]pyrazole-5(1H)-carboxamide], the inhibition constant (Ki) in assay [1] amounted to 18 nM. It took 98 nM to reach a half-maximal effect in assay [2] (EC50).

Compound `CN(C)C[C@@H](NC(=O)N1Cc2c(Nc3nc(Cl)nc4ccsc34)n[nH]c2C1(C)C)c1ccccc1` [Example 6, 3-[(2-chlorothieno[3,2-d]pyrimidin-4-yl)amino]-N-[(1S)-2-(dimethylamino)-1-phenylethyl]-6,6-dimethyl-4,6-dihydropyrrolo[3,4-c]pyrazole-5(1H)-carboxamide] gave a Ki in assay [1] of 2.8 nM. The response in assay [2] was half-maximal at 0.94 nM (EC50).

`CCOc1ncc(F)c(Nc2n[nH]c3c2CN(C(=O)N[C@@H]2C[C@H]2c2ccccc2)C3(C)C)n1` (relative stereo) [Example 37, 3-[(2-ethoxy-5-fluoropyrimidin-4-yl)amino]-6,6-dimethyl-N-[trans-2-phenylcyclopropyl]-4,6-dihydropyrrolo[3,4-c]pyrazole-5(1H)-carboxamide] gave a Ki in assay [1] of 270 nM. This compound displayed a concentration for a half-maximal effect (EC50) in assay [2] of 805 nM.

The compound `CN(C)C[C@@H](OC(=O)N1Cc2c(Nc3ncnc4ccsc34)n[nH]c2C1(C)C)c1ccccc1` [Example 68, (1S)-2-(dimethylamino)-1-phenylethyl 6,6-dimethyl-3-(thieno[3,2-d]pyrimidin-4-ylamino)-4,6-dihydropyrrolo[3,4-c]pyrazole-5(1H)-carboxylate] came in with an inhibition constant Ki in assay [1] of 6.7 nM. Besides, the EC50 in assay [2] came out at 20 nM.

Take `Cc1nc(Nc2n[nH]c3c2CN(C(=O)N[C@@H]2C[C@H]2c2ccccc2)C3(C)C)c2sccc2n1` [Example 32, 6,6-Dimethyl-3-[(2-methylthieno[3,2-d]pyrimidin-4-yl)amino]-N-[(1R,2S)-2-phenylcyclopropyl]-4,6-dihydropyrrolo[3,4-c]pyrazole-5(1H)-carboxamide]: the inhibition constant Ki in assay [1] stood at 3.5 nM. Moreover, the EC50 in assay [2] is 19 nM.

In the case of `CN(C)C[C@@H](NC(=O)N1Cc2c(Nc3ncnc4ccsc34)n[nH]c2C1(C)C)c1ccccc1` [Example 5, N-[(1S)-2-(dimethylamino)-1-phenylethyl]-6,6-dimethyl-3-(thieno[3,2-d]pyrimidin-4-ylamino)-4,6-dihydropyrrolo[3,4-c]pyrazole-5(1H)-carboxamide], the inhibition constant (Ki) in assay [1] turned out to be 220 nM. In assay [2], the EC50 was 87 nM.

In turn, `Cc1nccc(Nc2n[nH]c3c2CN(C(=O)N[C@H](CN(C)C)c2ccccc2)C3(C)C)n1` [Example 65, N-[(1S)-2-(dimethylamino)-1-phenylethyl]-6,6-dimethyl-3-[(2-methylpyrimidin-4-yl)amino]-4,6-dihydropyrrolo[3,4-c]pyrazole-5(1H)-carboxamide] yielded an inhibitory constant (Ki) in assay [1] of 680 nM. The same compound showed a half-maximal effective concentration (EC50) in assay [2] of 67.1 nM.

Turning to `Cc1ncnc(Nc2n[nH]c3c2CN(C(=O)N[C@H](CN(C)C)c2ccccc2)C3(C)C)c1F` [Example 56, N-[(1S)-2-(dimethylamino)-1-phenylethyl]-3-[(5-fluoro-6-methylpyrimidin-4-yl)amino]-6,6-dimethyl-4,6-dihydropyrrolo[3,4-c]pyrazole-5(1H)-carboxamide], in assay [1], the Ki came to 240 nM. The compound further gave an EC50 in assay [2] of 570 nM.

What is called Ki is the equilibrium dissociation constant of an inhibitor or competing ligand from its target. The low end stands for tighter binding, the high end for weaker binding. In general, EC50 refers to the concentration giving half of the maximal effect. High values mean weaker potency, low ones greater potency.
